Where two headings read alike, the source gives them in different places.
Legend:
Format in all cases: cell-based
[1] = system: MV-4-11; experiment: Proliferation inhibition at single concentration (CellTiter-Blue); conditions: 1 μM compound
[2] = system: HCT116; experiment: as above; conditions: 1 μM compound
[3] = system: HeLa; experiment: as above; conditions: for Percent inhibition of proliferation HeLa: 1 μM compound
Method: (§1) Plates were then treated with compound diluted in dimethyl sulfoxide (DMSO) as well as a DMSO control the following day for 72 hours. After this time the plates were then treated with 10 μL of CellTiter-Blue Cell Viability Assay (Promega, Madison, WI) for 4 hours. Then the plates were read on a plate reader (Bio-Tek, Winooski, VT). Data was analyzed on Excel as a percent of the DMSO vehicle.
(§2) Antiproliferative activities against AML cell line, MV4-11 (a FLT3-driven cell line) and three other solid tumors (MCF7, breast, HCT116, colon and HeLa) have been investigated (Tables 6A and 6B and FIG. 10).

[4] = system: MCF-7; experiment: as above; conditions: for Percent inhibition of proliferation MCF-7: 1 μM compound
Method: as §1, §2

[5] = system: MV4-11; experiment: Activity against AML cell line MV4-11 (CellTiter-Blue, 72 h)
Method: Cells were added to 96 well plates at 2000 cells per well for adherent lines and 4000 cells per well for suspension lines and kept in an incubator overnight. The following day the plates were treated with compounds to give rise to the final concentrations of; 100 μM, 10 μM, 5 μM 1 μM, 500 nM, 100 nM, 10 nM, […]. The plates were then stored in the incubator for 72 hours. On the third day the cells were assayed with 20 μL of CellTiter—Blue Cell Viability Assay per well and were incubated for 4 hours. After 4 hours' fluorescence intensity was taken on a plate reader: Excitation: 560/10 Emission: 590/10. IC50 analysis was performed on GraphPad Prism 7.

[6] = system: K562; experiment: IC50 proliferation assay (Alamar Blue, 72 h)
Method: IC50 proliferation assay—Cell lines and primary cells were seeded into 96-well plates the afternoon prior to treatment. Approximately 18 hours later, compounds were semi-serially diluted in dimethyl sulfoxide (DMSO) and then growth medium, and added to cells. Plates were incubated for 72 hours prior to addition of Alamar Blue (Life Technologies, Carlsbad, CA). Plates were read after 4 additional hours of incubation at 37° C. using a Bio-Tek Synergy HT plate reader (Bio-Tek, Winooski, VT). Data was analyzed and graphed using GraphPad Prism Software (Graphpad, La Jolla. CA).
IC50 (proliferation inhibition) against leukemia cell lines MV4-11 and K562. […] MiaPaca-2 (Pancreatic cell line), HLY-1 (Lymphoma cell line), MV4-11 (AML, cell line) and K562 (CML cell line).

[7] = 72 h, read-out: IC50 against MV4-11/uM
[8] = Table 2, read-out: IC50 (nM) against MV4-11 (AML cell line)
[9] = FIG. 1, read-out: anticancer activities (IC50) against MV4-11
[10] = Table 18, read-out: Inhibition of proliferation of K562 cell lines (CML)
[11] = Homo sapiens, K562, Table 18, read-out: Inhibition of proliferation of K562 cell lines (CML)

SMILES | Percent inhibition of proliferation MV-4-11 [1] | Percent inhibition of proliferation HCT116 [2] | Percent inhibition of proliferation HeLa [3] | Percent inhibition of proliferation MCF-7 [4] | further results
CCN(CC)CC(O)CNC(=O)c1cccc(C#Cc2c(N)ncc3ccc(Cl)cc23)c1 (centres unmarked) [HSN189] | 95% | 7% | 18% | 49% | 
Nc1ncc2ccc(Cl)cc2c1C#Cc1ccc(C(=O)NCCCN2CCCC2)cc1 [HSM1673] | 98% | 28% | 38% | 56% | IC50 [5, 7]: 0.011 µM; IC50 [5, 8]: 0.025 ± 0.0014 µM
COCCCNC(=O)c1ccc(C#Cc2c(N)ncc3ccc(Cl)cc23)cc1 [HSM1692] | 81% | 29% | 0% | 22% | IC50 [5, 7]: 0.45 µM; IC50 [5, 9]: 0.45 µM
Nc1ncc2ccc(Cl)cc2c1C#Cc1cccc(C(=O)N2CCC(N)CC2)c1.O=C(O)C(F)(F)F [HSN174] | 85% | 28% | 10% | 40% | 
CN1CCN(CCCNC(=O)c2ccc(C#Cc3c(N)ncc4ccc(Cl)cc34)cc2)CC1 [HSM1674] | 93% | 14% | 8% | 36% | IC50 [5, 7]: 0.11 µM
Cc1ccc(C(=O)NCCN2CCCC2)cc1C#Cc1c(N)ncc2ccc(Cl)cc12 [HSL41] |  |  |  |  | IC50 [6, 10]: 30.1 ± 0.19 nM
Cc1ccc(C(=O)NCCN2CCCCC2)cc1C#Cc1cnc(N)c2ccccc12 [HSL58] |  |  |  |  | IC50 [6, 10]: 94.5 ± 0.1 nM
NCC(O)CNC(=O)c1ccc(C#Cc2c(N)ncc3ccc(Cl)cc23)cc1 (centres unmarked) [HSN177] | 91% | 15% | 1% | 46% | 
O=C(NCCCN1CCCCC1)c1ccc(C#Cc2cncc3ccccc23)cc1 [HSM1690] |  |  |  |  | IC50 [5, 7]: 3.09 µM
CN(C)CCCCCNC(=O)c1ccc(C#Cc2c(N)ncc3ccc(Cl)cc23)cc1 [HSM1684] |  |  |  |  | IC50 [5, 7]: 0.071 µM; IC50 [5, 9]: 0.071 µM
Cc1ccc(C(=O)NCCCN2CCCCC2)cc1C#Cc1c(N)ncc2ccc(Cl)cc12 [HSL56] |  |  |  |  | IC50 [6, 10]: 95.4 ± 0.23 nM
Nc1ncc2ccc(Cl)cc2c1C#Cc1ccc(C(=O)N[C@H]2CC[C@H](N)CC2)cc1.O=C(O)C(F)(F)F [HSN129] | 99% | 29% | 22% | 37% | IC50 [5, 7]: 0.008 µM
COc1cc2nc(N)nc(C#Cc3cc(C(=O)NCc4ccc(OCCN(C)C)cc4)ccc3C)c2cc1OC [HSN317, 3-((2-amino-6,7-dimethoxyquinazolin-4-yl)ethynyl)-N-(4-(2-(dimethylamino)ethoxy)benzyl)-4-methylbenzamide] |  |  |  |  | IC50 ([6]; Homo sapiens, K562, 72 h, read-out: IC50 (proliferation inhibition) Cell line - K562): 1480 nM; IC50 [6, 11]: 1483 ± 0.1 nM
Nc1ccc(CCNC(=O)c2ccc(C#Cc3c(N)ncc4ccc(Cl)cc34)cc2)cc1 [HSN136] | 86% | 38% | 0% | 33% | IC50 [5, 7]: 0.095 µM
N#Cc1cccc(C#Cc2c(N)ncc3ccc(Cl)cc23)c1 [HSM1617] |  |  |  |  | IC50 [5, 7]: 0.77 µM
Nc1ncc2ccc(Cl)cc2c1C#Cc1ccc(C(=O)N2CCC3(CCNCC3)CC2)cc1 [HSM1773] | 93% | 24% | 24% | 43% | 
Cc1ccc(C(=O)NCCN2CCCCC2)cc1C#Cc1cnc2cccnn12 [HSL44] |  |  |  |  | IC50 [6, 10]: 43.5 ± 0.14 nM
Nc1ncc2ccc(Cl)cc2c1C#Cc1cccc(C(=O)NCCc2c[nH]cn2)c1 [HSN157] | 96% | 12% | 33% | 21% | 

SMILES | Percent inhibition of proliferation MV-4-11 [1] | Percent inhibition of proliferation HCT116 [2] | Percent inhibition of proliferation HeLa [3] | Percent inhibition of proliferation MCF-7 [4] | further results
CN(C)CCOc1ccc(CNC(=O)c2ccc(C#Cc3c(N)ncc4ccc(Cl)cc34)cc2)cc1 [HSN99] | 97% | 20% | 6% | 42% | 
Cc1ccc(C(=O)Nc2ccc(CN3CCN(C)CC3)c(C(F)(F)F)c2)cc1C#Cc1c(N)nc(C)c2ccccc12 [HSN375, 3-((3-amino-1-methylisoquinolin-4-yl)ethynyl)-4-methyl-N-(4-((4-methylpiperazin-1-yl)methyl)-3-(trifluoromethyl)phenyl)benzamide] |  |  |  |  | IC50 [6, 11]: 8.8 ± 0.4 nM
CC(C)(C)OC(=O)N1CCN(CCCNC(=O)c2ccc(C#Cc3c(N)ncc4ccc(Cl)cc34)cc2)CC1 [HSM1693] |  |  |  |  | IC50 [5, 7]: 0.03 µM; IC50 [5, 8]: 0.0148 ± 0.0014 µM
Cc1ccc(C(=O)NCCN2CCN(C)CC2)cc1C#Cc1c(N)ncc2ccc(Cl)cc12 [HSL47] |  |  |  |  | IC50 [6, 10]: 161.1 ± 0.11 nM
Nc1ncc2ccc(Cl)cc2c1C#Cc1ccc(C(=O)NCC(O)CN2CCCCC2)cc1 (centres unmarked) [HSM1725] |  |  |  |  | IC50 [5, 7]: 0.008 µM
CCN(CC)CC(O)CNC(=O)c1ccc(C#Cc2c(N)ncc3ccc(Cl)cc23)cc1 (centres unmarked) [HSN184] | 97% | 38% | 51% | 92% | 
Nc1ncc2ccc(Cl)cc2c1C#Cc1ccc(C(=O)NCCc2c[nH]cn2)cc1 [HSN145] | 99% | 35% | 11% | 6% | 
CCN(CC)CC(O)CNC(=O)c1ccc(C)c(C#Cc2c(N)ncc3ccc(Cl)cc23)c1 (centres unmarked) [HSN185] | 97% | 67% | 99% | 100% | 
Nc1ncc2ccc(Cl)cc2c1C#Cc1ccc(C(=O)NCC(O)CN2CCCC2)cc1 (centres unmarked) [HSM1750] | 93% | 20% | 11% | 17% | 
NCCNC(=O)c1ccc(C#Cc2c(N)ncc3ccc(Cl)cc23)cc1 [HSN204] | 77% | 21% | 22% | 20% | 
Nc1ncc2ccc(Cl)cc2c1C#Cc1cccc(C(=O)NCC(O)CN2CCCC2)c1 (centres unmarked) [HSM1751] | 91% | 32% | 23% | 47% | 
CC(C)(C)OC(=O)NC1CCN(C(=O)c2ccc(C#Cc3c(N)ncc4ccc(Cl)cc34)cc2)CC1 [HSN139] | 95% | 32% | 35% | 60% | 
Cc1ccc(C(=O)NCCN2CCOCC2)cc1C#Cc1c(N)ncc2ccc(Cl)cc12 [HSL43] |  |  |  |  | IC50 [6, 10]: 10.1 ± 0.1 nM
Nc1ncc2ccc(Cl)cc2c1C#Cc1ccc(C(=O)NCCCN2CCOCC2)cc1 [HSM1610] | 90% | 39% | 20% | 29% | 
Cc1ccc(C(=O)Nc2ccc(CN3CCN(C)CC3)c(C(F)(F)F)c2)cc1C#Cc1c(N)ncc2cc(Cl)c(Cl)cc12 [HSN393, 3-((3-amino-6,7-dichloroisoquinolin-4-yl)ethynyl)-4-methyl-N-(4-((4-methylpiperazin-1-yl)methyl)-3-(trifluoromethyl)phenyl)benzamide] |  |  |  |  | IC50 [6, 11]: 7.3 ± 0.04 nM
CN(C)CC(O)CNC(=O)c1cccc(C#Cc2c(N)ncc3ccc(Cl)cc23)c1 (centres unmarked) [HSN161] | 97% | 18% | 70% | 91% | 
Nc1ncc2ccc(Cl)cc2c1C#Cc1ccc(C2=NC(C3CC3)CN2)cc1 (centres unmarked) [Compound 1703] |  |  |  |  | activity against HeLa in words ([3]; FIG. 3): potent; activity against MCF-7 in words ([4]; FIG. 2): potent
Cc1ccc(C(=O)NCCN2CCCCC2)cc1C#Cc1cnc(N)c2ncccc12 [HSL45] |  |  |  |  | IC50 [6, 10]: 25.3 ± 0.1 nM

Reference: patent US20250084039A1, “4-SUBSTITUTED AMINOISOQUINOLINE DERIVATIVES” (Purdue Research Foundation, priority 2016, published 2025)
